Laboratory results published in PMC7352922, “Norditerpenoids with Selective Anti-Cholinesterase Activity from the Roots of Perovskia atriplicifolia Benth” (International Journal of Molecular Sciences, 2020).
“And” between values parts separate entries of the source, which are not always exact repeats. Equal values may be shown once. Where a name gives a salt, the structure may show the parent alone. Read-outs that look alike come from different tables or passages of the source.

Key:
[1] = target: T1, horse serum butyrylcholinesterase (Equus caballus, UniProt P81908); experiment: biochemical; conditions: for inhibition at 10 µg/mL: read-out: % Inhibition ± S.D. at 10.0 µg·mL^−1 BChE; for IC50: read-out: BChE Inhibition IC50 (converted)
T1 construct: horse serum butyrylcholinesterase (EC 3.1.1.8, Sigma, St. Louis, MO, USA); purchased Sigma, St. Louis, MO, USA; host or cells: horse serum
Protocol: (§1) A modified spectrophotometric method of Ellman et al. was used for the determination of inhibitory activity against AChE and BChE. Electric eel acetylcholinesterase (Type-VI-S, EC 3.1.1.7, Sigma, St. Louis, MO, USA) and horse serum butyrylcholinesterase (EC 3.1.1.8, Sigma, St. Louis, MO, USA) were used as the test enzymes and acetylthiocholine iodide and butyrylthiocholine chloride (Sigma, St. Louis, MO, USA) were employed as the respective substrates. The ChE activity was evaluated with the detection reagent 5,5′-dithio-bis(2-nitrobenzoic) acid (DTNB, Sigma, St. Louis, MO, USA). All the other reagents and conditions were the same as described in our previous publication. In brief, the following reaction mixture was added by a multichannel automatic pipette (Gilson Pipetman, Villiers Le Bel, France) in a 96-well microplate and incubated for 15 min at 25 °C: 140 µL of […] sodium phosphate buffer (pH 8.0), 20 µL of […] DTNB, 20 µL of sample solutions (0.1–10 µg/mL) and 20 µL of acetylcholinesterase/butyrylcholinesterase solution (0.2 µM). The reaction was then initiated with the addition of 10 µL of acetylthiocholine iodide or butyrylthiocholine chloride (2 mM). […] Galanthamine (Sigma, St. Louis, MO, USA)—an alkaloid isolated from snowdrop—was employed as the reference inhibitory drug.
(§2) The measurements and calculations were performed using SoftMax PRO 4.3.2.LS software (Molecular Devices, San Jose, CA, USA). […] The extent of the enzymatic reaction was calculated based on the following equation: E = (C − T)/C × 100, where E is the activity of the enzyme. E expresses the effect of the test sample or the positive control on acetylcholinesterase and butyrylcholinesterase enzyme activity expressed as the percentage of the […] in the presence of the test sample or positive control. C is the absorbance of the control solvent (blank) in the presence of an enzyme, and T is the absorbance of the tested sample (plant extract or positive control in the solvent) in the presence of an enzyme.
(§3) Statistical differences between the reference and the sample groups were evaluated by one-way ANOVA (Statistica 13PL, StatSoft, Cracow, Poland) with Dunnett’s multiple comparison post-hoc test for which p < 0.05 was considered to be significant (* p < 0.05; ** p < 0.01; *** p < 0.001, **** p < 0.0001).

[2] = target: T1, horse serum butyrylcholinesterase; experiment: biochemical; conditions: BChE; for assumed competitive inhibition, substrate concentration = 1 mM; read-out: Ki app
[3] = test system: several cancer cell lines; conditions: isolated from rhizomes of Salvia tebesana Bunge; cited from earlier work
cholinesterase = conditions: cited from earlier work
[4] = target: T2, Electric eel acetylcholinesterase (Electrophorus electricus, UniProt O42275); experiment: biochemical; conditions: for inhibition at 10 µg/mL: read-out: % Inhibition ± S.D. at 10.0 µg·mL^−1 AChE, at 10.0 µg·mL^−1; for IC50: read-out: AChE IC50
T2 construct: purchased Sigma, St. Louis, MO, USA Type-VI-S
Protocol: as §1, §2, §3

T1 sequence (P81908 whole entry): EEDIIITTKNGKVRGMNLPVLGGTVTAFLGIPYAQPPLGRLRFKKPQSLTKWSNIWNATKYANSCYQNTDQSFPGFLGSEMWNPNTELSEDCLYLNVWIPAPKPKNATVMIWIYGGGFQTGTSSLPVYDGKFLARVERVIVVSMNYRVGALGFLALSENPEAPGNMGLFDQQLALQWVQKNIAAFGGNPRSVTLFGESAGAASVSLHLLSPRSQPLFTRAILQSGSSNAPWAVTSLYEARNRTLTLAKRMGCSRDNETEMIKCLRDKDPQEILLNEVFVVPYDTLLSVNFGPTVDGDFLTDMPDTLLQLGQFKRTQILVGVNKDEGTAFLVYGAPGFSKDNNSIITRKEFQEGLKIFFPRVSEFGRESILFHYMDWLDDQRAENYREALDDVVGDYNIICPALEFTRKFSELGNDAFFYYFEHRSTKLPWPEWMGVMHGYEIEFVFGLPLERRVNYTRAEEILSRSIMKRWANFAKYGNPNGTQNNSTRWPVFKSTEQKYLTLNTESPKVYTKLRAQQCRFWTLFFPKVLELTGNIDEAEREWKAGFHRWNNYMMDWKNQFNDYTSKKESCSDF
T2 sequence (O42275 24-633): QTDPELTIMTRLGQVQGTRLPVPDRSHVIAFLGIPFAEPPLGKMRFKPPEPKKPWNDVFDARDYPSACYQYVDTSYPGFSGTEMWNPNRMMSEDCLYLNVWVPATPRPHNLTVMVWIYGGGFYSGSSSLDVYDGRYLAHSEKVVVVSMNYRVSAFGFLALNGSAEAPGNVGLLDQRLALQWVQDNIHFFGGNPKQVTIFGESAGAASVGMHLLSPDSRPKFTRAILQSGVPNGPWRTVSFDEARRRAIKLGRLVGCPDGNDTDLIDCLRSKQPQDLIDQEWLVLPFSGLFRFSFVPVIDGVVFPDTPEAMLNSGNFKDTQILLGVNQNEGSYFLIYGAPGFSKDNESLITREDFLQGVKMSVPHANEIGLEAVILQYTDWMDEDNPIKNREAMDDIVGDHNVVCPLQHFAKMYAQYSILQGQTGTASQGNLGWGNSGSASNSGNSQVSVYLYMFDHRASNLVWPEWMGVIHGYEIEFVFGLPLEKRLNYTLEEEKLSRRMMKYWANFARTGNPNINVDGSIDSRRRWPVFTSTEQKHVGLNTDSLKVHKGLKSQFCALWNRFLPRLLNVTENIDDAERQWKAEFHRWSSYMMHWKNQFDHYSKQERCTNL

Molecule | % Inhibition ± S.D. at 10.0 µg·mL^−1 BChE ([1]; at 10.0 µg·mL^−1) [%] | inhibition at 10 µg/mL ([1]; at 10.0 µg·mL^−1) [%] | IC50 [1] | Ki [2] [µM] | also measured
CC(=O)O[C@@H]1CCC(C)(C)c2ccc3c(c21)C(=O)C(=O)c1c(C)coc1-3 [Compound 2, (1R)-1-acetoxytanshinone IIA] | 85.3 ± 4.3 | 85.3 | 7.9 µM and 7.86 µM | 4.59 | 
Aegyptinone A |  |  |  |  | cytotoxic activity against several cancer cell lines [3]: moderate
C[C@H]1COC2=C1C(=O)C(=O)c1c2ccc2c1CCCC2(C)C [cryptotanshinone] |  |  |  |  | cholinesterase inhibitory activity (cholinesterase): only moderate
C[C@H]1COC2=C1C(=O)C(=O)c1cc3c(cc12)C(C)(C)CCC3=O [Compound 3, (R)-3,10,10-trimethyl-2,3,9,10-tetrahydroanthra[1,2-b]furan-4,5,7(8H)-trione] | 87.3 ± 1.0 | 87.3 | 50.8 µM | 30 | inhibition at 10 µg/mL [4]: ≤ 50%; IC50 [4]: 330 µM
CC(=O)O[C@@H]1CCC(C)(C)c2ccc3c(c21)C(=O)C(=O)C1=C3OC[C@@H]1C [Compound 1, (1R,15R)-1-acetoxycryptotanshinone] | 95.9 ± 0.0 | 95.9 | 2.4 µM and 2.37 µM | 1.34 | 
Cc1cc2c(cc(O)c1=O)C1(CO)CCCC(C)(C)C1CC2 (centres unmarked) [Compound 4, isograndifoliol] |  | 98.6 | 0.9 µM and 0.893 µM and 0.89 µM | 0.47 | BChE Inhibition IC50 [1]: below one micromole; inhibition at 10 µg/mL [4]: ≤ 50%; IC50 [4]: > 340 µM and 343 µM
COc1ccc2c3c1O[C@H]1C[C@@H](O)C=C[C@@]31CCN(C)C2 [Galanthamine hydrobromide, reference compound] |  |  |  |  | inhibition at 10 µg/mL [1]: 86.8 ± 2.9%
